Assay results from patent US10414759B2, “Phenylthiazoles and uses thereof” (Purdue Research Foundation, priority 2017, dated 2019).
In brackets after ≈: the same amount, converted by molar mass.

What was measured:
[1] = system: Enterococcus faecium ATCC 700221 (VRE); assay: MIC/MBC Gram-positive pathogens (Table 9); format: cell-based; settings: Table 9; Enterococcus faecium ATCC 700221 (VRE); read-out: MIC
Protocol: (§1) The minimum inhibitory concentration (MIC) of tested compounds and control antibiotics were determined using the broth microdilution method in accordance with the recommendations contained in the Clinical and Laboratory Standards Institute guidelines, against methicillin-sensitive (ATCC 6538 and NRS107), methicillin-resistant (MRSA), and vancomycin-resistant (VRSA) Staphylococcus aureus, Staphylococcus epidermidis, Enterococcus faecalis, E. faecium, Listeria monocytogenes, and Streptococcus pneumoniae clinical isolates. A bacterial solution equivalent to 0.5 McFarland standard was prepared and diluted in cation-adjusted Mueller-Hinton broth (CAMHB) to achieve a bacterial concentration of about 5×10^5 CFU/mL and seeded in 96-well plates. Enterococcus faecium was diluted in brain heart infusion broth. Enterococcus faecalis, Streptococcus pneumonia and Listeria monocytogenes were diluted in tryptone soya broth (TSB). Compounds and control drugs were added in the first row of 96-well plates and serially diluted (to achieve a concentration gradient ranging from 128 to 1 μg/mL). Plates were then incubated aerobically at 37° C. for at least 18 hours. The minimum bactericidal concentration (MBC) of the active compounds was tested by plating 5 μL from wells with no growth onto Tryptic soy agar (TSA) plates.

[2] = system: MRSA (2658 RCMB); assay: MIC against MRSA (2658 RCMB), broth dilution; format: cell-based, Staphylococcus aureus; settings: Staphylococcus aureus; Table 7; initial screening, MRSA (2658 RCMB); read-out: minimum inhibitory concentration (MIC)
Protocol: (§2) Bacteria were cultured in cation-adjusted Mueller Hinton broth in a 96-well plate. Compounds, using triplicate samples, were added to the plate and serially diluted. […] Plates were visually inspected and the MIC was categorized as the concentration at which no visible growth of bacteria was observed. The average of triplicate MIC determinations is reported.
(§3) A bacterial solution equivalent to 0.5 McFarland standard was prepared and diluted in cation-adjusted Mueller-Hinton broth (CAMHB) to achieve a bacterial concentration of about 5×10^5 CFU/mL and seeded in 96-well plates. Enterococcus faecium was diluted in brain heart infusion broth. Enterococcus faecalis, Streptococcus pneumonia and Listeria monocytogenes were diluted in tryptone soya broth (TSB).

[3] = system: MRSA NRS119; assay: MIC/MBC S. aureus strains (Table 8); format: cell-based; settings: Staphylococcus aureus
Protocol: as §3

[4] = system: MRSA NRS384 (USA300); assay: MIC/MBC S. aureus strains (Table 8); format: cell-based; settings: Staphylococcus aureus
Protocol: as §3

[5] = system: MRSA NRS385; assay: MIC/MBC S. aureus strains (Table 8); format: cell-based; settings: Staphylococcus aureus
Protocol: as §3

[6] = system: S. aureus ATCC 6538; assay: MIC/MBC S. aureus strains (Table 8); format: cell-based; settings: Staphylococcus aureus, ATCC6538
Protocol: as §3

[7] = system: MRSA NRS123 (USA400); assay: MIC/MBC S. aureus strains (Table 8); format: cell-based; settings: Staphylococcus aureus
Protocol: as §3

[8] = system: MRSA NRS386; assay: MIC/MBC S. aureus strains (Table 8); format: cell-based; settings: Staphylococcus aureus
Protocol: as §3

[9] = system: MRSA (USA300); assay: Time-kill assay; format: cell-based, Staphylococcus aureus; settings: 3.0×MIC
Protocol: Aliquots (100 μL) were taken from each sample after 2, 4, 6, 8, 10, 12, and 24 hours, serially diluted in phosphate-buffered saline, and transferred to Trypticase soy agar (TSA) (Becton, Dickinson and Company, Sparks, Md., USA) plates. Plates were incubated at 37° C. for at least 16 hours before counting viable CFU/mL to determine the time required to reduce the bacterial cell count by 3-log10.

[10] = system: VRS12 (VRSA); assay: MIC/MBC S. aureus strains (Table 8); format: cell-based; settings: Staphylococcus aureus, Table 8, VRS12 (VRSA); for MBC: read-out: MBC
Protocol: as §1

[11] = system: VRS10 (VRSA); assay: MIC/MBC S. aureus strains (Table 8); format: cell-based; settings: Staphylococcus aureus, Table 8, VRS10 (VRSA); for MBC: read-out: MBC
Protocol: as §1

[12] = system: Enterococcus faecalis ATCC 51299 (VRE); assay: MIC/MBC Gram-positive pathogens (Table 9); format: cell-based; settings: Table 9, Enterococcus faecalis ATCC 51299 (VRE)
Protocol: as §3

[13] = system: Methicillin-resistant Staphylococcus epidermidis NRS101; assay: MIC/MBC Gram-positive pathogens (Table 9); format: cell-based
Protocol: as §3

[14] = system: Listeria monocytogenes ATCC 19111; assay: MIC/MBC Gram-positive pathogens (Table 9); format: cell-based
Protocol: as §3

[15] = system: Methicillin-resistant Streptococcus pneumoniae ATCC 700677; assay: MIC/MBC Gram-positive pathogens (Table 9); format: cell-based; settings: ATCC700677
Protocol: as §3

[16] = system: Cephalosporin-resistant Streptococcus pneumoniae ATCC 51916; assay: MIC/MBC Gram-positive pathogens (Table 9); format: cell-based; settings: ATCC51916
Protocol: as §3

[17] = system: S. aureus NRS107; assay: MIC/MBC S. aureus strains (Table 8); format: cell-based, Staphylococcus aureus
Protocol: as §3

[18] = system: VRSA10; assay: MIC/MBC clinical isolate panel (Table 3); format: cell-based, S. aureus; settings: Staphylococcus aureus, Table 3, VRSA10
Protocol: as §2, with “MRSA clinical isolates, and vancomycin-resistant Staphylococcus aureus (VRSA) strain were obtained through the Network of Antimicrobial Resistance in Staphylococcus aureus (NARSA) program. In addition, vancomycin-resistant Enterococcus faecium (VRE) strain was obtained from the ATCC. Bacteria” for “Bacteria”
as §1

[19] = system: NRS123 (MRSA USA400); assay: MIC/MBC clinical isolate panel (Table 3); format: cell-based, S. aureus; settings: Staphylococcus aureus; Table 3; NRS123 (MRSA USA400)
Protocol: as §2, §3

[20] = system: NRS383 (MRSA USA200); assay: MIC/MBC clinical isolate panel (Table 3); format: cell-based, S. aureus; settings: Staphylococcus aureus, Table 3, NRS383 (MRSA USA200)
Protocol: as §2, §3

[21] = system: NRS384 (MRSA USA300); assay: MIC/MBC clinical isolate panel (Table 3); format: cell-based, S. aureus; settings: Staphylococcus aureus; Table 3; NRS384 (MRSA USA300)
Protocol: as §2, §3

[22] = system: NRS72 (MSSA); assay: MIC/MBC clinical isolate panel (Table 3); format: cell-based, S. aureus; settings: Staphylococcus aureus, Table 3, NRS72 (MSSA)
Protocol: as §2, §3

[23] = system: NRS382 (MRSA USA100); assay: MIC/MBC clinical isolate panel (Table 3); format: cell-based, S. aureus; settings: Staphylococcus aureus, Table 3, NRS382 (MRSA USA100)
Protocol: as §2, §3

[24] = system: VRE ATCC 700221; assay: MIC/MBC clinical isolate panel (Table 3); format: cell-based, Enterococcus faecium; settings: Enterococcus, Table 3, VRE ATCC 700221
Protocol: as §2, with “MRSA clinical isolates, and vancomycin-resistant Staphylococcus aureus (VRSA) strain were obtained through the Network of Antimicrobial Resistance in Staphylococcus aureus (NARSA) program. In addition, vancomycin-resistant Enterococcus faecium (VRE) strain was obtained from the ATCC. Bacteria” for “Bacteria”
as §1

[25] = Staphylococcus aureus, Table 8, S. aureus NRS107

Compound: Cc1nc(-c2ccc(C(C)(C)C)cc2)sc1-c1ccnc(NC(=N)c2ccccn2)n1 [Compound 64, N-(4-(2-(4-(tert-Butyl)phenyl)-4-methylthiazol-5-yl)pyrimidin-2-yl) picolinimidamide]
- MIC [1]: 4 µg/mL (≈ 9.33 µM)
- MIC [2]: 0.78 µg/mL (≈ 1.82 µM)
- MBC [3]: 4 µg/mL (≈ 9.33 µM)
- MIC [3]: 4 µg/mL (≈ 9.33 µM)
- MBC [4]: 4 µg/mL (≈ 9.33 µM)
- MIC [4]: 4 µg/mL (≈ 9.33 µM)
- MBC [5]: 4 µg/mL (≈ 9.33 µM)
- MIC [5]: 4 µg/mL (≈ 9.33 µM)
- MBC [6]: 4 µg/mL (≈ 9.33 µM)
- MIC [6]: 2 µg/mL (≈ 4.67 µM)
- MBC [7]: 2 µg/mL (≈ 4.67 µM)
- MIC [7]: 2 µg/mL (≈ 4.67 µM)
- MBC [8]: 2 µg/mL (≈ 4.67 µM)
- MIC [8]: 2 µg/mL (≈ 4.67 µM)
- time to three-log10 reduction in the initial inoculum of MRSA [9]: within six hours
- bactericidal / bacteriostatic behaviour in time-kill assay, in words ([9]; MRSA): rapid bactericidal activity
- time to completely eradicate the MRSA inoculum ([9]; t-butyl series): ≤ 24 h
- MBC [10]: 4 µg/mL (≈ 9.33 µM)
- MIC ([10]; read-out: MIC): 4 µg/mL (≈ 9.33 µM)
- MBC [11]: 4 µg/mL (≈ 9.33 µM)
- MIC ([11]; read-out: MIC): 2 µg/mL (≈ 4.67 µM)
- MIC [12]: 64 µg/mL (≈ 149 µM)
- MBC ([12]; read-out: MBC): > 64 µg/mL
- MBC [13]: > 64 µg/mL
- MIC [13]: 64 µg/mL (≈ 149 µM)
- MIC ([14]; ATCC19111, Table 9, Listeria monocytogenes ATCC 19111): 2 µg/mL (≈ 4.67 µM)
- MBC values relative to MIC values against L. monocytogenes ([14]; text b122): more than three-fold higher
- MBC [15]: 8 µg/mL (≈ 18.7 µM)
- MIC [15]: 8 µg/mL (≈ 18.7 µM)
- MBC [16]: 4 µg/mL (≈ 9.33 µM)
- MIC [16]: 4 µg/mL (≈ 9.33 µM)
- MBC [17, 25]: > 64 µg/mL
- MIC [17, 25]: 64 µg/mL (≈ 149 µM)
- activity against S. aureus NRS107, in words ([17]; text b117): inactive

Compound: CC(=O)NC[C@H]1CN(c2ccc(N3CCOCC3)c(F)c2)C(=O)O1 [Linezolid, linezolid]
- MBC ([18]; read-out: MBC): 2 µg/mL (≈ 5.93 µM)
- MIC ([18]; read-out: MIC): 1 µg/mL (≈ 2.96 µM)
- MBC [3]: > 64 µg/mL
- MIC [3]: 32 µg/mL (≈ 94.9 µM)
- MIC [4]: 1 µg/mL (≈ 2.96 µM)
- MIC [7]: 1 µg/mL (≈ 2.96 µM)
- MBC [8]: 64 µg/mL (≈ 190 µM)
- MBC [10]: 64 µg/mL (≈ 190 µM)
- MBC [11]: 64 µg/mL (≈ 190 µM)
- MBC [19]: 16 µg/mL (≈ 47.4 µM)
- MBC [20]: 32 µg/mL (≈ 94.9 µM)
- MIC ([20]; read-out: MIC): 1 µg/mL (≈ 2.96 µM)
- MBC [21]: 4 µg/mL (≈ 11.9 µM)
- MBC [22]: 2 µg/mL (≈ 5.93 µM)
- MIC ([22]; read-out: MIC): 1 µg/mL (≈ 2.96 µM)
- MBC [23]: 8 µg/mL (≈ 23.7 µM)
- MIC ([23]; read-out: MIC): 1 µg/mL (≈ 2.96 µM)
- MBC ([24]; read-out: MBC): 32 µg/mL (≈ 94.9 µM)
- MIC ([24]; read-out: MIC): 1 µg/mL (≈ 2.96 µM)
